Experimental data from article PMC3740683, “ML212: A small-molecule probe for investigating fluconazole resistance mechanisms in Candida albicans” (Beilstein Journal of Organic Chemistry, 2013).
Values after ≈ are worked out from the molar mass of the structure shown. Read-outs that look alike come from different tables or passages of the source.

Tests used:
[1] = test system: C. albicans CaCi-8; assay: Secondary assay 1: CaCi-8 with 8 µg/mL fluconazole (Alamar Blue growth); format: cell-based, Candida albicans; conditions: for IC50: Candida albicans; for CaCi-8 IC50: 37 °C, 48 hours, with test compound and 8 µg/mL (26 µM) fluconazole, average of at least three independent experiments in duplicate, inactive = negligible activity at concentrations below 26 µM
Experimental: All of the compounds prepared above were evaluated for their ability to chemosensitize the C. albicans test strains CaCi-2 and CaCi-8 towards fluconazole. […] The DMSO/fluconazole combination served as an internal control. […]
(1/OD measured) × (desired final volume of inoculum) × 0.3 = volume of fungal culture (µL) to add to desired volume of growth medium. When added to media in wells, this yields a calculated starting OD of the fungal inoculum of 0.00015. […]
3) Use a Thermo Combi nL to dispense 20 µL/well of assay media into all wells. […]
EnVision (Perkin Elmer) plate reader setup: Ex 544 nm, Em 590 nm, bandwidth 12 nm, top read.
Secondary assay 1: CaCi-8 with 8 µg/mL fluconazole […]
35808016); geldanamycin (AG Scientific Catalog no. […]
PBS w/o calcium and magnesium (Cellgro Catalog no. 21-040-CV)
(§1) Synthetic defined growth medium
(§2) RPMI 1640 medium, (powder without sodium bicarbonate; Invitrogen Catalog no. […]
no. 028K0760); glucose 40% (w/v) in water (Sigma Catalog no. G-5400); MOPS buffer […]
1) Prepare 1× RPMI medium by dissolving 10.4 g powdered medium in 800 mL […]
(§3) 2) Add 34.52 g MOPS. While stirring, adjust pH to 7.0 with 10 N NaOH.
(§4) 3) Add 10 mL uridine solution, 50 mL glucose solution, adjust final volume to 1000 […]
Test strain: C. albicans CaCi-8
1) Inoculate 500 µL of strain from cryopreserved stock into a 250 mL shaker flask containing 30 mL growth medium. Shake at 30 °C overnight (16 hours).
2) Read OD 600 of 1 mL of fungal culture in a cuvette using a standard optical density reader (Eppendorf BioPhotometer Plus), with growth medium as a […]
3) Dilute to a desired volume of fungal inoculum according to following formula: […]
1) Add fluconazole stock solution to fungal inoculum to achieve 8 µg/mL.
2) Add Pen/Strep to media to 1% concentration.
4) Dispense geldanamycin in positive control wells using Thermo Combi nL for a final concentration of 3 µM.
5) Then, pin 100 nL of test compound from compound plates into assay plates using a CyBi-Well pin tool.
6) Dispense 20 µL/well of culture into the assay media in all wells.
7) Incubate the plates in a humidified (90% humidity) Liconic incubator at 37 °C without agitation for 48 hours.
8) Dilute Alamar Blue 1:40 in Ca/Mg-free PBS.
9) To all plates, add 5 µL/well of the diluted Alamar Blue to plates to a final dilution […]
10) Incubate the plates for 2 hours. […]

[2] = test system: C. albicans CaCi-2; assay: Primary screen and dose-response retest: CaCi-2 with 8 µg/mL fluconazole (Alamar Blue growth); format: cell-based, Candida albicans; conditions: for IC50: Candida albicans, CACI2
Experimental: All of the compounds prepared above were evaluated for their ability to chemosensitize the C. albicans test strains CaCi-2 and CaCi-8 towards fluconazole. […] The DMSO/fluconazole combination served as an internal control.
Protocols for cellular assays
Primary screen and dose-response retest: CaCi-2 with 8 µg/mL fluconazole […]
Clear, flat-bottom, black, 384-well plates (Corning Catalog no. 3712BC; Lot no. […]
DMSO; Fluconazole (Sequoia Research Products Ltd) 2 mg/mL stock solution in PBS; […]
(AG Scientific Catalog no. DAL 1100; Lot no.151016SA); PBS without calcium and magnesium (Cellgro Catalog no. 21-040-CV)
as §1, §2
no. 028KO760); Glucose 40% (w/v) in water (Sigma Catalog no. G-5400); MOPS buffer […]
1) Prepare 1× RPMI medium by dissolving 10.4 grams powdered medium in 800 […]
as §3, §4
Test Strain: C. albicans CaCi-2
1) Inoculate 500 µL of strain from cryopreserved stock into a 250 mL shaker flask containing 30 mL growth medium. Shake at 30 °C overnight.
2) Read OD 600 of 1 mL fungal culture in a cuvette using a standard optical density reader (Eppendorf BioPhotometer Plus), with growth medium as a background […]
3) Dilute to desired volume of fungal inoculums according to the following formula:
(1/OD measured) × (desired final volume of inoculum) × 0.3 = volume of fungal culture (µL) to add to desired volume of growth medium. When added to media in wells, this yields a calculated starting OD of the fungal inoculum of 0.00015.
1) Add fluconazole stock solution to fungal inoculum to achieve a final concentration […]
2) Add Pen/Strep at 0.1 mL per 10 mL media (1% v/v).
3) Use a Thermo Combi nL to dispense 20 µL/well of assay media into all wells.
4) Pin 25 nL test compound from compound plates into assay plates using CyBi- […]
5) Dispense 20 µL/well of culture into the assay media in all wells.
6) Incubate plates in a humidified (90% humidity) Liconic incubator at 37 °C without […]
7) Dilute Alamar Blue Reagent 1:40 in Ca/Mg-free PBS.
8) To all plates, add 5 µL/well of the diluted Alamar to a final dilution factor of 1:200.
9) Incubate the plates for an additional 2 hours.
10) Read the relative fluorescence intensity (RFU) of wells on a standard plate reader as a measure of relative fungal growth. EnVision (Perkin Elmer) plate reader setup: Ex 544 nm, Em 590 nm, bandwidth 12 nm, top read. […]

[3] = Secondary assay 3: fibroblast toxicity; format: cell-based; conditions: mouse, NIH-3T3 fibroblasts, murine 3T3 fibroblasts
Experimental: 11) Read relative fluorescence intensity (RFU) of wells on a standard plate reader as […]
measure of relative fungal growth. EnVision (Perkin Elmer) plate reader settings: […]
Secondary assay 3: fibroblast toxicity
Clear, flat-bottom, black, 384-well plates (Corning Catalog no. 3712BC Lot no.
35808016); geldanamycin (AG Scientific Catalog no. G-1047) 15 mM stock solution in […]
DMSO; fluconazole (Sequoia Research Ltd.) 2 mg/mL stock solution in PBS; Alamar […]
Blue (AG Scientific Catalog no. DAL1100, Lot no. 151016SA); PBS w/o calcium and […]
magnesium (Cellgro Catalog no. 21-040-CV)
Optimem medium (Invitrogen Catalog no. 31985-070; Lot no. 548536); 2.5% (v/v) fetal […]
bovine serum (Hyclone Catalog no.30071.03; Lot no. ARF26748); 1% (v/v) Pen/Strep […]
Test strain: NIH-3T3 mammalian fibroblasts (ATCC CRL No. 1658) […]
1) Plate cells in 384-well plates at 6,000 cells/well in 20 µL assay medium.
2) Incubate plates overnight at 37 °C under 5% CO2.
1) After overnight culture, pin compounds into wells at 100 nL/well using the CyBio […]
CyBi-Well pinning instrument.
2) After pinning compounds, add 20 µL of assay medium supplemented with […]
fluconazole to each well. […]
6) Read the relative fluorescence intensity (RFU) of wells on a standard plate reader as a measure of relative cell growth. EnVision (Perkin Elmer) plate reader […]
setup: Ex 544 nm, Em […], bandwidth12 nm, top read.

[4] = Solubility in PBS; format: physicochemical; conditions: aqueous buffer
[5] = test system: CaCi-2; parameters: method as in PMID 8161633; conditions: CaCi-2 clinical isolate; cited from earlier work
[6] = test system: CaCi-8; parameters: method as in PMID 8161633; conditions: CaCi-8 clinical isolate; cited from earlier work
[7] = CACI8, 48 h, read-out: CaCi-8 IC50
[8] = 37 °C, 48 hours, with test compound and 8 µg/mL (26 µM) fluconazole, average of at least three independent experiments in duplicate, inactive = negligible activity at concentrations below 26 µM

SMILES | IC50 [1, 7] [µM] | IC50 [2, 8] [µM] | CaCi-8 IC50 [1] | CaCi-2 IC50 [2, 8] | other results
COC(=O)Cn1nc(-c2ccccc2)c2ccccc21 [Compound 1] | 3.5 ± 1.9 | 2.2 ± 1 |  |  | IC50 ([1]; CACI8, read-out: CaCi-8 IC50): 2.3 µM; IC50 ([2]; commercial sample, hit revalidation, with 8 µg/mL fluconazole): 0.8 µM; IC50 at 48 h [3]: > 26 µM; solubility [4]: 79 µM (≈ 21 µg/mL)
COC(=O)Cn1nc(-c2ccccc2)c2cc(C)ccc21 [Compound 11] | 8.2 ± 3.2 | 5.2 ± 2.2 |  |  | 
COC(=O)Cn1nc(-c2ccccc2)c2cc(OC)ccc21 [Compound 12] | 22.1 ± 6.2 | 14.9 ± 5.7 |  |  | 
COC(=O)Cn1nc(-c2ccccc2)c2cc(F)ccc21 [Compound 13] |  | 11.2 ± 7.2 | inactive |  | 
COC(=O)Cn1nc(-c2ccccc2)c2cc(Cl)ccc21 [Compound 14] |  |  | inactive | inactive | 
COC(=O)Cn1nc(-c2ccccc2)c2ccc(C)cc21 [Compound 15] |  | 5.9 ± 3.1 | inactive |  | 
COC(=O)Cn1nc(-c2ccccc2)c2ccc(OC)cc21 [Compound 16] | 12.4 ± 0.5 | 9.5 ± 2.5 |  |  | 
COC(=O)Cn1nc(-c2ccccc2)c2ccc(Cl)cc21 [Compound 17] | 8.4 ± 0.5 | 4 ± 1.3 |  |  | 
COC(=O)Cn1nc(-c2ccccc2)c2ccc(C(F)(F)F)cc21 [Compound 18] |  |  | inactive | inactive | 
COC(=O)Cn1nc(-c2ccccc2)c2cccc(C(F)(F)F)c21 [Compound 19] |  |  | inactive | inactive | 
COC(=O)Cn1nc(-c2ccccc2)c2cccnc21 [Compound 20] |  |  | inactive | inactive | 
COC(=O)Cn1ncc2ccccc21 [Compound 21] |  |  | inactive | inactive | 
CCc1nn(CC(=O)OC)c2ccccc12 [Compound 22] |  |  | inactive | inactive | 
COC(=O)Cn1nc(C(C)(C)C)c2ccccc21 [Compound 23] |  |  | inactive | inactive | 
COC(=O)Cn1nc(C2CC2)c2ccccc21 [Compound 24] |  |  | inactive | inactive | 
COC(=O)Cn1nc(C2CCCCC2)c2ccccc21 [Compound 25] | 6 ± 1.7 | 2.3 ± 0.3 |  |  | 

SMILES | IC50 [1, 7] [µM] | IC50 [2, 8] [µM] | CaCi-8 IC50 [1] | CaCi-2 IC50 [2, 8] | other results
COC(=O)Cn1nc(-c2cccnc2)c2ccccc21 [Compound 26] |  |  | inactive | inactive | 
COC(=O)Cn1nc(-c2cncnc2)c2ccccc21 [Compound 27] | 21.1 ± 3.3 |  |  | inactive | 
COC(=O)Cn1nc(-c2cnco2)c2ccccc21 [Compound 28] |  |  | inactive | inactive | 
COC(=O)Cn1nc(-c2cscn2)c2ccccc21 [Compound 29] |  | 12.9 ± 1.7 | inactive |  | 
COC(=O)Cn1nc(-c2ccc(C)cc2)c2ccccc21 [Compound 30] | 19.5 ± 14.2 | 4.8 ± 2.5 |  |  | 
COC(=O)Cn1nc(-c2ccc(OC)cc2)c2ccccc21 [Compound 31] | 14.1 ± 6.4 | 4.2 ± 1.7 |  |  | 
COC(=O)Cn1nc(-c2ccc(F)cc2)c2ccccc21 [Compound 32] | 12.3 ± 3.9 | 8.3 ± 2.8 |  |  | 
COC(=O)Cn1nc(-c2ccc(C(F)(F)F)cc2)c2ccccc21 [Compound 33] |  | > 26 | inactive | inactive | 
COC(=O)Cn1nc(-c2ccc(C#N)cc2)c2ccccc21 [Compound 34] | 20.5 ± 0.3 | > 26 |  | inactive | 
COC(=O)Cn1nc(-c2cccc(C)c2)c2ccccc21 [Compound 35] | 1.9 ± 0.9 | 1.1 ± 0.6 |  |  | 
COC(=O)Cn1nc(-c2cccc(N(C)C)c2)c2ccccc21 [Compound 37] | 2 ± 0.2 | 0.8 ± 0.1 |  |  | 
COC(=O)Cn1nc(-c2cccc(F)c2)c2ccccc21 [Compound 38] | 4.2 ± 4.1 | 1.7 ± 0.4 |  |  | 
COC(=O)Cn1nc(-c2ccccc2C)c2ccccc21 [Compound 39] | 7.8 ± 2.6 | 5.3 ± 0.5 |  |  | 
COC(=O)Cn1nc(-c2ccccc2OC)c2ccccc21 [Compound 40] | 11.4 ± 1.7 | 9.3 ± 3.6 |  |  | 
COC(=O)Cn1nc(-c2cc(OC)cc(OC)c2)c2ccccc21 [Compound 41] |  |  | inactive | inactive | 
OC(Cn1cncn1)(Cn1cncn1)c1ccc(F)cc1F [fluconazole] |  |  |  |  | minimum inhibitory concentration (MIC) [5]: 2 µg/mL (≈ 6.53 µM); minimum inhibitory concentration (MIC) [6]: 8 µg/mL (≈ 26.1 µM)
